# Tests used:
# [1] = tested on: luciferase expression in the liver; assay: Luciferase mRNA in vivo evaluation using lipid nanoparticle compositions; parameters: species or system mice; conditions: LNP-formulated lipid, tail vein injection, ng luciferase/g liver 4 hours after administration; for Liver Luc @ 0.3 mg/kg: 0.3 mg mRNA/kg; for Liver Luc @ 1.0 mg/kg: 1.0 mg mRNA/kg
# Description: (§1) A lipid of structure (I), DSPC, cholesterol and PEG-lipid are solubilized in ethanol at a molar ratio of 50:10:38.5:1.5 or 47.5:10:40.7:1.8. Lipid nanoparticles (LNP) are prepared at a total lipid to mRNA weight ratio of approximately 10:1 to 40:1. Briefly, the mRNA is diluted to 0.2 mg/mL in 10 to 50 mM citrate buffer, pH 4 to 6 or 10 to 25 mM acetate buffer, pH 4. Syringe pumps are used to mix the ethanolic lipid solution with the mRNA aqueous solution at a ratio of about 1:5 to 1:3 (vol/vol) with total flow rates above 15 mL/min. The ethanol is then removed, and the external buffer replaced with PBS by dialysis. Finally, the lipid nanoparticles are filtered through a 0.2 µm pore sterile filter.
# Studies are performed in 6-8-week-old female C57BL/6 mice (Charles River) 8-10-week-old CD-1 mice (Charles River or Inotiv) according to guidelines established by an institutional animal care committee (ACC) and the Canadian Council on Animal Care (CCAC). Varying doses of mRNA-lipid nanoparticle are systemically administered by tail vein injection and animals euthanized at a specific time point (e.g., 4 hours) post-administration. Liver and spleen are collected in pre-weighed tubes, weights determined, immediately snap frozen in liquid nitrogen, and stored at −80° C. until processing for analysis.
# For liver, approximately 50 mg is dissected for analyses in a 2 mL FastPrep tubes (MP Biomedicals, Solon OH). ¼″ ceramic sphere (MP Biomedicals) is added to each tube and 500-750 μL of Glo Lysis Buffer—GLB (Promega, Madison WI) equilibrated to room temperature is added to liver tissue. Liver tissues are homogenized with the FastPrep24 instrument (MP Biomedicals) at 2×6.0 m/s for 15 seconds. Homogenate is incubated at room temperature for 5 minutes prior to a 1:4 to 1:6 dilution in GLB and assessed using SteadyGlo Luciferase assay system (Promega). Specifically, 50 μL of diluted tissue homogenate is reacted with 50 μL of SteadyGlo substrate, shaken for 10 seconds followed by 5-minute incubation and then luminescence was quantitated using a FilterMax F5 Microplate Reader (Molecular Devices, USA). The amount of protein assayed is determined by using the BCA protein assay kit (Pierce, Rockford, IL). Relative luminescence units (RLU) were then normalized to total μg protein or weight (g) of tissue assayed. To convert RLU to ng luciferase a standard curve is generated with QuantiLum Recombinant Luciferase (Promega).
# The FLuc mRNA (L-7202) from Trilink Biotechnologies will express a luciferase protein, originally isolated from the firefly, Photinus pyralis. Flue is commonly used in mammalian cell culture to measure both gene expression and cell viability. It emits bioluminescence in the presence of the substrate, luciferin. This capped and polyadenylated mRNA is modified with 5-methoxyuridine and optimized for mammalian systems.
# (§2) Representative compounds of the disclosure shown in Table 2 were formulated using the following molar ratio: 50% cationic lipid/10% distearoylphosphatidylcholine (DSPC)/38.5% Cholesterol/1.5% PEG lipid 2-[2-(ω-methoxy(polyethyleneglycol2000)ethoxy]-N,N-ditetradecylacetamide) or 47.5% cationic lipid/10% DSPC/40.7% Cholesterol/1.8% PEG lipid. Relative activity was determined by measuring luciferase expression in the liver 4 hours following administration via tail vein injection as described in Example 1 or by measuring the amount of human IgG in mouse serum as described in example 2. The activity was compared at a dose of 1.0 or 0.5 or 0.3 mg mRNA/kg and expressed as ng luciferase/g liver measured 4 hours after administration, as described in Example 1 or as μg IgG/mL serum measured 24 hours after administration, as described in Example 2. Compound numbers in Table 2 refer to the compound numbers of Table 1.
# human IgG in mouse serum = assay: Immunoglobulin G (IgG) mRNA in vivo evaluation using lipid nanoparticle compositions; parameters: species or system mice; conditions: LNP-formulated lipid, tail vein injection, μg IgG/mL serum 24 hours after administration; for Serum IgG @ 0.3 mg/kg: 0.3 mg mRNA/kg; for Serum IgG @ 1.0 mg/kg: 1.0 mg mRNA/kg
# Description: as §1, with “4 to 6.” for “4.”
# Studies are performed in 6-8-week-old CD-1/ICR mice (Envigo, Charles River, or Inotiv) according to guidelines established by an institutional animal care committee (ACC) and the Canadian Council on Animal Care (CCAC). Varying doses of mRNA-lipid nanoparticle are systemically administered by tail vein injection and animals euthanized at a specific time point (e.g., 24 hours) post-administration. The whole blood is collected, and the serum subsequentially separated by centrifuging the tubes of the whole blood at 2000×g for 10 minutes at 4° C. and stored at −80° C. until use for analysis.
# For immunoglobulin G (IgG) ELISA (Life Diagnostics Human IgG ELISA kit), the serum samples are diluted at 100 to 20,000 folds with 1× diluent solution. 100 μL of diluted serum is dispensed into anti-human IgG coated 96-well plate in duplicate alongside human IgG standards and incubated in a plate shaker at 150 rpm at 25° C. for 45 minutes. The wells are washed 5 times with 1× wash solution using a plate washer (400 μL/well). 100 μL of HRP conjugate is added into each well and incubated in a plate shaker at the same condition above. The wells are washed 5 times again with 1× wash solution using a plate washer (400 μL/well). 100 μL of TMB reagent is added into each well and incubated in a plate shaker at the same condition above. The reaction is stopped by adding 100 μL of Stop solution to each well. The absorbance is read at 450 nm (A450) with a microplate reader. The amount of human IgG in mouse serum is determined by plotting A450 values for the assay standard against human IgG concentration.
# as §2
Structure (SMILES),Liver Luc @ 0.3 mg/kg [1] [ng/g],Liver Luc @ 1.0 mg/kg [1] [ng/g],Serum IgG @ 0.3 mg/kg (human IgG in mouse serum) [µg/mL],Serum IgG @ 1.0 mg/kg (human IgG in mouse serum) [µg/mL]
"CCCCCCCCCCN(CCCCCCCCCC)C(=O)CCCCCCCN(CCCCCCCC(=O)N(CCCCCCCCCC)CCCCCCCCCC)C[C@H]1C[C@H](O)C1 [(1R, 3R) I-2, 8,8′-((((1R,3R)-3-hydroxycyclobutyl)methyl)azanediyl)bis(N,N-didecyloctanamide)]",12651 ± 3017,82113 ± 14450,,
"CCCCCCCCCCN(CCCCCCCCCC)C(=O)CCCCCCCN(CCCCCCCC(=O)N(CCCCCCCCCC)CCCCCCCCCC)CC[C@H]1C[C@@H](O)C1 [(1S, 3R) I-1, 8,8′-((2-((1S,3R)-3-hydroxycyclobutyl)ethyl)azanediyl)bis(N,N-didecyloctanamide)]",18927 ± 2102,79233 ± 12026,,
"CCCCCCCCCCN(CCCCCCCCCC)C(=O)CCCCCCCN(CCCCCCCC(=O)N(CCCCCCCCCC)CCCCCCCCCC)C[C@H]1C[C@@H](O)C1 [(1S, 3S) I-2, 8,8′-((((1S,3S)-3-hydroxycyclobutyl)methyl)azanediyl)bis(N,N-didecyloctanamide)]",10872 ± 2411,91854 ± 15303,,
"CCCCCCCCCCN(CCCCCCCCCC)C(=O)CCCCCCCN(CCCCCCCC(=O)N(CCCCCCCCCC)CCCCCCCCCC)[C@H]1C[C@H](O)C[C@H](O)C1 [(1s, 3R, 5S) I-34, 8,8′-(((1s,3r,5s)-3,5-dihydroxycyclohexyl)azanediyl)bis(N,N-didecyloctanamide)]",,,7.06 ± 4.68,57.07 ± 24.86
"CCCCCCCCCCN(CCCCCCCCCC)C(=O)CCCCCCCCCN(CCCCCC(=O)N(CCCCCCCCCC)CCCCCCCCCC)[C@H]1CC[C@@H](O)CC1 [(15, 4S) I-61, N,N-didecyl-10-((6-(didecylamino)-6-oxohexyl)((1s,4s)-4-hydroxycyclohexyl)amino)decanamide]",,,40.66 ± 9.70,
"CCCCCCCCCCN(CCCCCCCCCC)C(=O)CCCCCCCN(CCCCCCCC(=O)N(CCCCCCCCCC)CCCCCCCCCC)CC1CCC(O)C1 (centres unmarked) [Compound I-4, 8,8′-(((3-hydroxycyclopentyl)methyl)azanediyl)bis(N,N-didecyloctanamide)]",,,32.39 ± 3.12,155.20 ± 15.34
"CCCCCCCCCCN(CCCCCCCCCC)C(=O)CCCCCCCN(CCCCCCCC(=O)N(CCCCCCCCCC)CCCCCCCCCC)C1CCC(O)CC1 (centres unmarked) [Compound I-9, 8,8′-((4-hydroxycyclohexyl)azanediyl)bis(N,N-didecyloctanamide)]",,,35.77 ± 4.50,
"CCCCCCCCCCN(CCCCCCCCCC)C(=O)CCCCCCCN(CCCCCCCC(=O)N(CCCCCCCCCC)CCCCCCCCCC)C1CC2(CC(O)C2)C1 (centres unmarked) [Compound I-36, 8,8′-((6-hydroxyspiro[3.3]heptan-2-yl)azanediyl)bis(N,N-didecyloctanamide)]",,,25.76 ± 8.65,171.89 ± 45.93

# From patent publication US20240417370A1, “LIPIDS FOR USE IN LIPID NANOPARTICLE FORMULATIONS” (Acuitas Therapeutics, Inc., priority 2023, published 2024)
